{"source": "patent US7365096B2", "about": "“Methods for selectively inhibiting Janus tyrosine kinase 3 (Jak3)” (Board of Regents, The University of Texas System, priority 2002, dated 2008)", "biological_target": "T1, Jak3 (Homo sapiens, UniProt P52333)", "T1 sequence (P52333 1-1124)": "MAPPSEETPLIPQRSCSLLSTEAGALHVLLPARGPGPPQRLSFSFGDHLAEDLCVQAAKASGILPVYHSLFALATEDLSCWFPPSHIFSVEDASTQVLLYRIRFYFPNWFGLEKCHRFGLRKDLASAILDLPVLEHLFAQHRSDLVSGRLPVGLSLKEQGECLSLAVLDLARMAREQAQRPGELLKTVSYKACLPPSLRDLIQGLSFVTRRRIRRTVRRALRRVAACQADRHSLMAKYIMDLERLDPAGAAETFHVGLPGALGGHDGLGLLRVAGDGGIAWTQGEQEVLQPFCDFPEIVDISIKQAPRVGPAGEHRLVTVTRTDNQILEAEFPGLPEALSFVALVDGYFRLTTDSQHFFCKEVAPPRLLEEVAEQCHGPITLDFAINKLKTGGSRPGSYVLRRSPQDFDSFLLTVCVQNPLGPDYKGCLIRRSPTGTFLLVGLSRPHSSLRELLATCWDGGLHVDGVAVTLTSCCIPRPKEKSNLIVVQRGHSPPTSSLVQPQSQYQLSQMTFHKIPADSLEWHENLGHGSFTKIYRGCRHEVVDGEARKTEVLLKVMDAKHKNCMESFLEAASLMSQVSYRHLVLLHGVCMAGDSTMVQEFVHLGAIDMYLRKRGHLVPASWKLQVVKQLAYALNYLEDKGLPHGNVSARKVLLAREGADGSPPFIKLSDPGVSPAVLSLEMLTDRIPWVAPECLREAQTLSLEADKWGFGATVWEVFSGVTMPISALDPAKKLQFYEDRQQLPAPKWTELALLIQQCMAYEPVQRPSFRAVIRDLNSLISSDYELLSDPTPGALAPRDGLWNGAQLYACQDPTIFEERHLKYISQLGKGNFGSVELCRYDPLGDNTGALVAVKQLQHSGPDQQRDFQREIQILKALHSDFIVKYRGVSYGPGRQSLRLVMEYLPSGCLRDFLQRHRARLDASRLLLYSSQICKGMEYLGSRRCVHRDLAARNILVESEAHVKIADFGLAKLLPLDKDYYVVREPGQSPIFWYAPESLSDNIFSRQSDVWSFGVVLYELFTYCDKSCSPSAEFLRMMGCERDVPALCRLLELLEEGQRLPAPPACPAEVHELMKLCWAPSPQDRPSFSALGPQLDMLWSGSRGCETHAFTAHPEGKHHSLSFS", "test": "IL-2 activated Jak3 tyrosine phosphorylation in YT cells (Western blot)", "assay_type": "cell-based", "design": "endogenous in cells; host or cells: human YT cells", "settings": "1-100 μM, 2 hours, 100 nM IL-2", "method": "Solubilization of membrane proteins, immunoprecipitation, and Western blot analysis. Frozen cell pellets were thawed on ice and solubilized in 1% TX-100 lysis buffer (10^8 cells/ml) and clarified by centrifugation, as previously described.^16 For human T-cells, supernates were incubated rotating end over end for 2 hours at 4° C. with either 5 μl/ml polyclonal rabbit antisera raised against peptides derived from the unique COOH-termini of Jak3 (amino acid [a.a.] 1104-1124), carboxyl termini of human Stat5a (a.a. 775-794) or Stat5b (a.a. 777-787).^26 Ab and immunoprecipitated proteins were captured by incubation for 30 minutes with Protein A-Sepharose beads (Pharmacia, Piscataway, N.J.), sedimented for purification, and eluted by boiling in 2×SDS-sample buffer (20% Glycerol, 10% 2-Mercaptoethanol, 4.6% SDS, 0.004% Bromophenol blue in 0.125 M Tris pH 6.8) for 4 minutes. For phosphoMapk assays, approximately 25 μg of total cell lysate was dissociated in SDS-sample buffer and separated on 10% (all others on 7.5%) SDS-PAGE under reducing conditions. […]", "note": "Entries after “also recorded” stand apart in the source; their conditions may differ.", "data": [{"smiles": "CN(C)CC1CCCCCCCCCC(CN(C)C)C1=O", "note": "(mixture of isomers) [649641P (NC1153)]", "values": [{"measurement": "tyrosine phosphorylation of Jak3", "value": "inhibited in a dose-dependent fashion; also recorded: inhibited tyrosine phosphorylation"}]}]}
